Read-outs that look alike come from different tables or passages of the source.
Legend:
[1] = Population pharmacokinetic analysis; assay type: in vivo, human
[2] = adult subjects with T2D, cited from earlier work

## CCCCCCCCCCCCCCCC(=O)N[C@@H](CCC(=O)NCCCC[C@H](NC(=O)[C@H](C)NC(=O)[C@H](C)NC(=O)[C@H](CCC(N)=O)NC(=O)CNC(=O)[C@H](CCC(=O)O)NC(=O)[C@H](CC(C)C)NC(=O)[C@H](Cc1ccc(O)cc1)NC(=O)[C@H](CO)NC(=O)[C@H](CO)NC(=O)[C@@H](NC(=O)[C@H](CC(=O)O)NC(=O)[C@H](CO)NC(=O)[C@@H](NC(=O)[C@H](Cc1ccccc1)NC(=O)[C@@H](NC(=O)CNC(=O)[C@H](CCC(=O)O)NC(=O)[C@H](C)NC(=O)[C@@H](N)Cc1cnc[nH]1)[C@@H](C)O)[C@@H](C)O)C(C)C)C(=O)N[C@@H](CCC(=O)O)C(=O)N[C@@H](Cc1ccccc1)C(=O)N[C@H](C(=O)N[C@@H](C)C(=O)N[C@@H](Cc1c[nH]c2ccccc12)C(=O)N[C@@H](CC(C)C)C(=O)N[C@H](C(=O)N[C@@H](CCCNC(=N)N)C(=O)NCC(=O)N[C@@H](CCCNC(=N)N)C(=O)NCC(=O)O)C(C)C)[C@@H](C)CC)C(=O)O [liraglutide]
[1]; compared with an adult subject of the same weight and gender
  Decrease in AUC24, pediatric age group: 10%
[1]; compared with exposure at reference body weight of 90 kg
  Geometric mean AUC24 lower at highest observed body weight (216 kg): 56%
[1]; compared with the reference female subject of the same body weight
  Lower drug exposure (AUC24) for males: 31%
[2]; liraglutide 1.2 mg and 1.8 mg alone or in combination with other oral antidiabetic drugs and/or insulin
  Mean decrease in glycated hemoglobin [HbA1c]: up to −1.5%
[2]; liraglutide 1.2 mg and 1.8 mg
  Safety and tolerability profile: acceptable safety and tolerability profile
[2]; liraglutide 1.2 mg
  Mean weight loss: ≤ -2.9 kg
[2]; liraglutide 1.8 mg
  Mean weight loss: up to −3.4 kg

Source: publication PMC4449373 (Clinical Pharmacokinetics, 2015)
